Calls of active or inactive are those of the source. No cut-off for these calls is given here.
What was measured:
MOLT-4 = experiment: Antiproliferative activity against human MOLT4 cells assessed as growth inhibition after 48 hrs by sulforhodamine B assay; assay type: functional; conditions: MOLT-4, 48 h
Erythrocyte [1] = experiment: Haemolytic activity in human erythrocytes assessed as induction of hemolysis at 0.625 mM after 30 mins relative to H202; assay type: cell-based; conditions: erythrocyte, 0.5 h, 625 µM
SNB-75 = experiment: Antiproliferative activity against human SNB75 cells assessed as growth inhibition after 48 hrs by sulforhodamine B assay; assay type: functional; conditions: SNB-75, 48 h
MDA-MB-435 = experiment: Antiproliferative activity against human MDA-MB-435 cells assessed as growth inhibition after 48 hrs by sulforhodamine B assay; assay type: functional; conditions: MDA-MB-435, 48 h
SK-OV-3 = experiment: Antiproliferative activity against human SKOV3 cells assessed as growth inhibition after 48 hrs by sulforhodamine B assay; assay type: functional; conditions: SK-OV-3, 48 h
EKVX = experiment: Antiproliferative activity against human EKVX cells assessed as growth inhibition after 48 hrs by sulforhodamine B assay; assay type: functional
WI-38 = experiment: Cytotoxicity activity against human WI38 cells assessed as reduction in cell viability measured after 48 hrs by MTT assay; assay type: cell-based; conditions: WI-38, 48 h
HT-29 = experiment: Antiproliferative activity against human HT-29 cells assessed as growth inhibition after 48 hrs by sulforhodamine B assay; assay type: functional; conditions: HT-29, 48 h
ACHN = experiment: Antiproliferative activity against human ACHN cells assessed as growth inhibition after 48 hrs by sulforhodamine B assay; assay type: functional
Malme-3M = experiment: Antiproliferative activity against human MALME-3M cells assessed as growth inhibition after 48 hrs by sulforhodamine B assay; assay type: functional
CCRF-CEM = experiment: Antiproliferative activity against human CCRF-CEM cells assessed as growth inhibition after 48 hrs by sulforhodamine B assay; assay type: functional
HCT-15 = experiment: Antiproliferative activity against human HCT15 cells assessed as growth inhibition after 48 hrs by sulforhodamine B assay; assay type: functional; conditions: HCT-15, 48 h
SF-295 = experiment: Antiproliferative activity against human SF295 cells assessed as growth inhibition after 48 hrs by sulforhodamine B assay; assay type: functional; conditions: SF-295, 48 h
NCI/ADR-RES = experiment: Antiproliferative activity against human NCI-ADR-RES cells assessed as growth inhibition after 48 hrs by sulforhodamine B assay; assay type: functional
[2] = Antioxidant activity assessed as DPPH radical scavenging activity incubated in dark for 30 mins by spectrophotometric method relative to ascorbic acid; assay type: functional
HCT-116 [3] = experiment: Induction of apoptosis in human HCT116 cells assessed as increase in caspase 9 mRNA expression at 100 nM after 6 hrs hrs by SYBR green dye-based qRT-PCR analysis relative to control; assay type: functional
[4] = Pro-oxidant activity assessed as increase in bleomycin-Fe2+ induced calf thymus DNA damage at 2 mM after 1 hr by thiobarbituric acid based absorbance analysis
SK-MEL-2 = experiment: Antiproliferative activity against human SK-MEL-2 cells assessed as growth inhibition after 48 hrs by sulforhodamine B assay; assay type: functional; conditions: SK-MEL-2, 48 h
HL-60(TB) = experiment: Antiproliferative activity against human HL-60(TB) cells assessed as growth inhibition after 48 hrs by sulforhodamine B assay; assay type: functional; conditions: HL-60, 48 h
[5] = tested on: Panel NCI-60 (60 carcinoma cell lines); experiment: Antiproliferative activity against human NCI60 cells assessed as growth inhibition at 10 uM after 48 hrs by sulforhodamine B assay; assay type: functional; conditions: read-out: GI
SNB-19 = experiment: Antiproliferative activity against human SNB19 cells assessed as growth inhibition after 48 hrs by sulforhodamine B assay; assay type: functional; conditions: SNB-19, 48 h
[6] = Selectivity index, ratio of IC50 for human WI38 cells to GI50 for human NCI60 cells
KM12 = experiment: Antiproliferative activity against human KM12 cells assessed as growth inhibition after 48 hrs by sulforhodamine B assay; assay type: functional; conditions: KM12, 48 h
A549 = experiment: Antiproliferative activity against human A549/ATCC cells assessed as growth inhibition after 48 hrs by sulforhodamine B assay; assay type: functional; conditions: A549, 48 h
SK-MEL-5 = experiment: Antiproliferative activity against human SK-MEL-5 cells assessed as growth inhibition after 48 hrs by sulforhodamine B assay; assay type: functional; conditions: SK-MEL-5, 48 h
786-0 = experiment: Antiproliferative activity against human 786-0 cells assessed as growth inhibition after 48 hrs by sulforhodamine B assay; assay type: functional; conditions: 786-0, 48 h
HCT-116 [7] = experiment: […] in CDK1 mRNA expression in human HCT116 cells at 100 nM after 6 hrs hrs by SYBR green dye-based qRT-PCR analysis relative to control; assay type: functional
PC-3 = experiment: Antiproliferative activity against human PC3 cells assessed as growth inhibition after 48 hrs by sulforhodamine B assay; assay type: functional; conditions: PC-3, 48 h
Erythrocyte [8] = experiment: Haemolytic activity in human erythrocytes assessed as induction of hemolysis at 1.25 mM after 30 mins relative to H202; assay type: cell-based; conditions: erythrocyte, 0.5 h, 1250 µM
NCI-H322M = experiment: Antiproliferative activity against human NCI-H322M cells assessed as growth inhibition after 48 hrs by sulforhodamine B assay; assay type: functional
[9] = tested on: Panel NCI-60 (60 carcinoma cell lines); experiment: Antiproliferative activity against human NCI60 cells assessed as growth inhibition after 48 hrs by sulforhodamine B assay; assay type: functional
U-251 = experiment: Antiproliferative activity against human U251 cells assessed as growth inhibition after 48 hrs by sulforhodamine B assay; assay type: functional; conditions: U-251, 48 h
OVCAR-3 = experiment: Antiproliferative activity against human OVCAR3 cells assessed as growth inhibition after 48 hrs by sulforhodamine B assay; assay type: functional; conditions: OVCAR-3, 48 h
UO-31 = experiment: Antiproliferative activity against human UO31 cells assessed as growth inhibition after 48 hrs by sulforhodamine B assay; assay type: functional; conditions: UO-31, 48 h
DU-145 = experiment: Antiproliferative activity against human DU145 cells assessed as growth inhibition after 48 hrs by sulforhodamine B assay; assay type: functional; conditions: DU-145, 48 h
LOX IMVI = experiment: Antiproliferative activity against human LOXIMVI cells assessed as growth inhibition after 48 hrs by sulforhodamine B assay; assay type: functional
Hs-578T = experiment: Antiproliferative activity against human Hs578T cells assessed as growth inhibition after 48 hrs by sulforhodamine B assay; assay type: functional
NCI-H460 = experiment: Antiproliferative activity against human NCI-H460 cells assessed as growth inhibition after 48 hrs by sulforhodamine B assay; assay type: functional; conditions: NCI-H460, 48 h
SF-268 = experiment: Antiproliferative activity against human SF268 cells assessed as growth inhibition after 48 hrs by sulforhodamine B assay; assay type: functional; conditions: SF-268, 48 h
[10] = Antioxidant activity assessed as hydroxyl radical scavenging activity after 1 hr by salicylic acid-based Fenton reaction assay; assay type: functional
IGROV-1 = experiment: Antiproliferative activity against human IGROV1 cells assessed as growth inhibition after 48 hrs by sulforhodamine B assay; assay type: functional; conditions: IGROV-1, 48 h
HCC 2998 = experiment: Antiproliferative activity against human HCC2998 cells assessed as growth inhibition after 48 hrs by sulforhodamine B assay; assay type: functional; conditions: HCC 2998, 48 h

For `COc1ccc2cc(-c3ccc(-c4ccc(C(=N)N)s4)s3)ccc2c1`, the GI50 (MOLT-4) was 2170 nM, the Activity (Erythrocyte [1]) was “Non-Toxic” and the GI50 (SNB-75) was 10400 nM. It also gave a GI50 (MDA-MB-435) of 2010 nM, a GI50 (SK-OV-3) of 17900 nM and a GI50 (EKVX) of 2140 nM. For the same compound, the IC50 (WI-38) was 80500 nM, the GI50 (HT-29) was 1720 nM and the GI50 (ACHN) was 3060 nM. For the same compound, the GI50 (Malme-3M) was 3320 nM, the GI50 (CCRF-CEM) was 1510 nM and the GI50 (HCT-15) was 1890 nM. For the same compound, the GI50 (SF-295) was 5070 nM, the GI50 (NCI/ADR-RES) was 2290 nM and the fold change (FC) [2] was 0.5. The “fold change (FC)” value (HCT-116 [3]) was 2.51, the Activity [4] was “Active” and the GI50 (SK-MEL-2) was 2660 nM. The GI50 (HL-60(TB)) was 1840 nM, the inhibition of growth at 10 µM [5] was 95.3% and the GI50 (SNB-19) was 2130 nM. For the same compound, the “Selectivity Index” value [6] was 26, the GI50 (KM12) was 2060 nM and the GI50 (A549) was 2220 nM. The GI50 (SK-MEL-5) was 16100 nM, the GI50 (786-0) was 2040 nM and the “fold change (FC)” value (HCT-116 [7]) was 0.93. The GI50 (PC-3) was 2130 nM, the Activity (Erythrocyte [8]) was “Non-Toxic” and the GI50 (NCI-H322M) was 2020 nM. For the same compound, the GI50 [9] was 3090 nM, the LC50 [9] was 38000 nM and the TGI [9] was 7940 nM. For the same compound, the GI50 (U-251) was 1830 nM, the GI50 (OVCAR-3) was 2420 nM and the GI50 (UO-31) was 2880 nM. The GI50 (DU-145) was 1700 nM, the GI50 (LOX IMVI) was 1950 nM and the GI50 (Hs-578T) was 16600 nM. The GI50 (NCI-H460) was 1940 nM, the GI50 (SF-268) was 2100 nM and the Activity [10] was “Active”. It also gave a GI50 (IGROV-1) of 2270 nM and a GI50 (HCC 2998) of 3350 nM.

For `COc1ccc(-c2ccc(-c3ccc(C(=N)N)o3)o2)cc1`, the GI50 (MOLT-4) was 1200 nM, the Activity (Erythrocyte [1]) was “Non-Toxic” and the GI50 (SNB-75) was 1470 nM. For the same compound, the GI50 (MDA-MB-435) was 290 nM, the GI50 (SK-OV-3) was 5630 nM and the GI50 (EKVX) was 2790 nM. The IC50 (WI-38) was 72900 nM, the GI50 (HT-29) was 480 nM and the GI50 (ACHN) was 1800 nM. For the same compound, the GI50 (Malme-3M) was 3970 nM, the GI50 (CCRF-CEM) was 1840 nM and the GI50 (HCT-15) was 670 nM. For the same compound, the GI50 (SF-295) was 1680 nM, the GI50 (NCI/ADR-RES) was 1880 nM and the fold change (FC) [2] was 0.7. For the same compound, the “fold change (FC)” value (HCT-116 [3]) was 2.31, the Activity [4] was “Active” and the GI50 (SK-MEL-2) was 5710 nM. It also gave a GI50 (HL-60(TB)) of 1230 nM, an inhibition of growth at 10 µM [5] of 86.4% and a GI50 (SNB-19) of 1990 nM. The “Selectivity Index” value [6] was 41.8, the GI50 (KM12) was 590 nM and the GI50 (A549) was 1490 nM. For the same compound, the GI50 (SK-MEL-5) was 2800 nM, the GI50 (786-0) was 2220 nM and the “fold change (FC)” value (HCT-116 [7]) was 1.02. The GI50 (PC-3) was 1880 nM, the Activity (Erythrocyte [8]) was “Non-Toxic” and the GI50 (NCI-H322M) was 2260 nM. For the same compound, the GI50 [9] was 1740 nM, the LC50 [9] was 20400 nM and the TGI [9] was 5890 nM. The GI50 (U-251) was 1740 nM, the GI50 (OVCAR-3) was 920 nM and the GI50 (UO-31) was 1720 nM. The GI50 (DU-145) was 1910 nM, the GI50 (LOX IMVI) was 1480 nM and the GI50 (Hs-578T) was 4330 nM. The GI50 (NCI-H460) was 1170 nM, the GI50 (SF-268) was 2040 nM and the Activity [10] was “Active”. For the same compound, the GI50 (IGROV-1) was 1730 nM and the GI50 (HCC 2998) was 1580 nM.

In the case of `COc1cc(-c2ccc(-c3ccc(C(=N)N)s3)s2)cc(OC)c1OC`, the GI50 (MOLT-4) is reported as 2400 nM, the Activity (Erythrocyte [1]) is reported as “Non-Toxic” and the GI50 (SNB-75) is reported as 1500 nM. For the same compound, the GI50 (MDA-MB-435) was 1640 nM, the GI50 (SK-OV-3) was 5150 nM and the GI50 (EKVX) was 1920 nM. It also gave an IC50 (WI-38) of 65700 nM, a GI50 (HT-29) of 1240 nM and a GI50 (ACHN) of 1780 nM. It also gave a GI50 (Malme-3M) of 1740 nM, a GI50 (CCRF-CEM) of 3420 nM and a GI50 (HCT-15) of 1910 nM. For the same compound, the GI50 (SF-295) was 1780 nM, the GI50 (NCI/ADR-RES) was 3440 nM and the fold change (FC) [2] was 0.7. For the same compound, the “fold change (FC)” value (HCT-116 [3]) was 2.81, the Activity [4] was “Active” and the GI50 (HL-60(TB)) was 2700 nM. For the same compound, the inhibition of growth at 10 µM [5] was 73.5%, the GI50 (SNB-19) was 2160 nM and the “Selectivity Index” value [6] was 34.4. For the same compound, the GI50 (KM12) was 1730 nM, the GI50 (A549) was 2140 nM and the GI50 (SK-MEL-5) was 1520 nM. For the same compound, the GI50 (786-0) was 1730 nM, the “fold change (FC)” value (HCT-116 [7]) was 0.81 and the GI50 (PC-3) was 1770 nM. For the same compound, the Activity (Erythrocyte [8]) was “Non-Toxic”, the GI50 (NCI-H322M) was 2380 nM and the GI50 [9] was 1910 nM. It also gave an LC50 [9] of 20900 nM, a TGI [9] of 4160 nM and a GI50 (U-251) of 1990 nM. For the same compound, the GI50 (OVCAR-3) was 2220 nM, the GI50 (UO-31) was 1740 nM and the GI50 (DU-145) was 2320 nM. The GI50 (LOX IMVI) was 1610 nM, the GI50 (NCI-H460) was 1990 nM and the GI50 (SF-268) was 1740 nM. The Activity [10] was “Active”, the GI50 (IGROV-1) was 1980 nM and the GI50 (HCC 2998) was 1760 nM.
